Results reported in ChEMBL document CHEMBL1201862, “PubChem BioAssay data set” (2004).
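In this assay, cells in 96-well plates receive the compound at five concentrations for 48 hours. Endpoints are linearly interpolated between the surrounding concentrations. At the GI50, growth is halved.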 The source made the active and inactive calls. Rule as the data show it: active = GI50 up to about 1.1 µM and inactive = higher.

Legend:
Assay in all cases: inhibition of tumour cell growth, NCI panel, 48 h
BT-549 = tested on: BT-549
DLD-1 = tested on: DLD-1
M19-MEL = tested on: M19-MEL
DMS-114 = tested on: DMS-114
LXFL 529 = tested on: LXFL 529
SNB-78 = tested on: SNB-78
HOP-18 = tested on: HOP-18
XF498 = tested on: XF498

Compound: NNS(=O)(=O)c1cc(C(=O)O)cc(C(=O)O)c1
- GI50 (BT-549): > 100 µM (inactive)

Compound: Clc1ccc(OCC2NC3C=CC32)cn1 (stereo not given)
- GI50 (BT-549): > 100 µM (inactive)

Compound: O=C1OC(c2ccccc2)=N/C1=C/NC(CS)C(=O)O (stereo not given)
- GI50 (DLD-1): > 100 µM (inactive)
- GI50 (M19-MEL): > 100 µM (inactive)
- GI50 (DMS-114): > 100 µM (inactive)
- GI50 (LXFL 529): > 100 µM (inactive)
- GI50 (SNB-78): > 100 µM (inactive)

Compound: COc1ccc(C(=O)NCCN(C)C)c2nc3ccccc3cc12
- GI50 (BT-549): 3.18 µM (inactive)

Compound: C=C(C)COC(=O)COCC(=O)OCC(=C)C
- GI50 (BT-549): > 100 µM (inactive)

Compound: COc1ccc(/C(=N\Nc2ccccn2)c2ccccn2)cc1
- GI50 (BT-549): 0.818 µM (active)

Compound: O=C(NC1C(=O)NNC1c1ccccc1Cl)c1ccccc1 (stereo not given)
- GI50 (DLD-1): > 100 µM (inactive)
- GI50 (M19-MEL): > 100 µM (inactive)
- GI50 (HOP-18): > 100 µM (inactive)
- GI50 (DMS-114): > 100 µM (inactive)
- GI50 (LXFL 529): > 100 µM (inactive)
- GI50 (XF498): > 100 µM (inactive)

Compound: C1CSC2=C(S1)SC1=C(S2)SC(=C2SC3=C(SC4=C(SCCS4)S3)S2)S1
- GI50 (BT-549): > 100 µM (inactive)

Compound: O=C1C(=O)N(C(=O)c2ccc(Cl)c(Cl)c2)c2ccc(Cl)cc21
- GI50 (DLD-1): 73.5 µM (inactive)
- GI50 (M19-MEL): 18.8 µM (inactive)
- GI50 (HOP-18): > 100 µM (inactive)
- GI50 (DMS-114): 27.1 µM (inactive)
- GI50 (LXFL 529): 71.4 µM (inactive)
- GI50 (SNB-78): > 100 µM (inactive)

Compound: CCOC(=O)N/N=C(/N)c1cccc([N+](=O)[O-])c1
- GI50 (BT-549): > 100 µM (inactive)

Compound: OC(CC1SCCCS1)c1ccccc1 (stereo not given)
- GI50 (DLD-1): > 100 µM (inactive)
- GI50 (M19-MEL): > 100 µM (inactive)
- GI50 (HOP-18): > 100 µM (inactive)
- GI50 (DMS-114): > 100 µM (inactive)
- GI50 (LXFL 529): > 100 µM (inactive)
- GI50 (XF498): > 100 µM (inactive)

Compound: O=C(CC(=O)Nc1ccccc1)NNC(c1cc(/N=N/c2ccc(Br)cc2)ccc1O)P(O)O (stereo not given)
- GI50 (BT-549): 4 µM (inactive)

Compound: O=[PH](O)c1cc2ccccc2c2ccccc12
- GI50 (DLD-1): > 100 µM (inactive)
- GI50 (M19-MEL): > 100 µM (inactive)
- GI50 (HOP-18): > 100 µM (inactive)
- GI50 (DMS-114): > 100 µM (inactive)
- GI50 (LXFL 529): > 100 µM (inactive)
- GI50 (SNB-78): > 100 µM (inactive)

Compound: c1ccc(CCCNc2nnnc3ccccc23)cc1
- GI50 (BT-549): > 100 µM (inactive)

Compound: Cc1nc(C(N)=S)sc1C(=O)CC(=O)C(=O)Nc1nc2ccccc2[nH]1
- GI50 (BT-549): > 100 µM (inactive)

Compound: CCOC(=O)C1C(=O)CC(O)(OCC)C(C(=O)OCC)C1c1ccc(OC)cc1 (stereo not given)
- GI50 (BT-549): > 100 µM (inactive)

Compound: O=C(Oc1ccccn1)c1cc2cc(CCl)ccc2oc1=O
- GI50 (BT-549): 22.3 µM (inactive)

Compound: CN(C)CCNC(=O)c1nc([N+](=O)[O-])cn1C
- GI50 (BT-549): > 100 µM (inactive)

Compound: COC(=O)c1c(C)cc2c(c1O)C1(O)C(=O)c3cc4c(c(O)c3C(=O)C1(OC)C(O)C2)C(=O)C=C(NC1OC(C)C(OC)C(O)C1OC)C4=O (stereo not given)
- GI50 (DLD-1): 0.0199 µM (active)
- GI50 (M19-MEL): 0.0196 µM (active)
- GI50 (DMS-114): 0.0104 µM (active)
- GI50 (LXFL 529): 0.0679 µM (active)
- GI50 (SNB-78): 0.0521 µM (active)
- GI50 (XF498): 0.114 µM (active)

Compound: O=c1nc(N2CCN(c3ccccc3)CC2)ccn1C1OC(CO)C(O)C1O (stereo not given)
- GI50 (BT-549): 53.2 µM (inactive)

Compound: COC(=O)C1=C(O)C(C(=O)OC)[C@]2(O)[C@H](C(=O)OC)[C@H]1C[C@@H](c1cccc(OC)c1)[C@H]2C(=O)OC (stereo not given in full)
- GI50 (BT-549): 30.6 µM (inactive)

Compound: C(#C[C@@]12CCC[C@@H]1N(Cc1ccccc1)CO2)c1ccc2c(c1)OCO2
- GI50 (BT-549): > 100 µM (inactive)

Compound: N#CC1(C#N)C2CCCCC23OC(=N)C1(C#N)C(c1ccccc1)O3 (stereo not given)
- GI50 (BT-549): 16.8 µM (inactive)

Compound: COc1ccc(C(O)c2ccccn2)cc1 (stereo not given)
- GI50 (BT-549): > 100 µM (inactive)

Compound: COc1ccc2oc(S(=O)(=O)N3CC(CCl)c4ccc([N+](=O)[O-])cc43)cc2c1 (stereo not given)
- GI50 (BT-549): 0.351 µM (active)

Compound: COc1cc([N+](=O)[O-])c(S(=O)(=O)O)cc1-n1nc(C(=O)Nc2ccccc2)n[n+]1-c1cc(S(=O)(=O)[O-])c([N+](=O)[O-])cc1OC
- GI50 (BT-549): > 100 µM (inactive)

Compound: NC(CSC(=O)c1ccccc1)C(=O)O (stereo not given)
- GI50 (BT-549): > 100 µM (inactive)

Compound: COc1ccc(/C=C/C(=O)c2cc(C(=O)O)c(OC)cc2OC)cc1OC
- GI50 (DLD-1): > 100 µM (inactive)
- GI50 (M19-MEL): > 100 µM (inactive)
- GI50 (HOP-18): > 100 µM (inactive)
- GI50 (DMS-114): > 100 µM (inactive)
- GI50 (LXFL 529): > 100 µM (inactive)
- GI50 (SNB-78): > 100 µM (inactive)

Compound: CCCCCCCCCc1cc(-c2ccc(C=O)s2)sc1-c1ccc(C=O)s1
- GI50 (BT-549): 35.3 µM (inactive)

Compound: COC1CC(C)C(OC)c2cc(O)cc(c2O)NC(=O)/C(C)=C/C=C\C(C)C(OC(N)=O)/C(C)=C\C(C)C1OC (stereo not given)
- GI50 (M19-MEL): 0.437 µM (active)
- GI50 (HOP-18): 0.0925 µM (active)
- GI50 (DMS-114): 0.406 µM (active)
- GI50 (LXFL 529): 0.191 µM (active)
- GI50 (SNB-78): 1.42 µM (inactive)

Compound: O=[N+]([O-])c1ccc(O)c(/C=N/CC2CCCN3CCCCC23)c1 (stereo not given)
- GI50 (BT-549): 38.6 µM (inactive)

Compound: CCN(CC)CC(=O)Nc1c(C(N)=O)nnn1Cc1cc(Cl)c(C(=O)c2ccc(Cl)cc2)c(Cl)c1
- GI50 (BT-549): 17.8 µM (inactive)

Compound: Cn1c2c(c3ccccc31)CCN(CCCN1CCN(c3ccccc3)CC1)C2=O
- GI50 (DLD-1): 19.7 µM (inactive)
- GI50 (M19-MEL): 19.5 µM (inactive)
- GI50 (HOP-18): 15.5 µM (inactive)
- GI50 (DMS-114): 16.9 µM (inactive)
- GI50 (LXFL 529): 17.9 µM (inactive)
- GI50 (XF498): 12.6 µM (inactive)

Compound: O=c1c(F)cn(Cc2c(Cl)cccc2Cl)c(=O)n1Cc1c(Cl)cccc1Cl
- GI50 (BT-549): > 31.6 µM (inactive)

Compound: Cc1c/c(=N\c2ccc3c(c2)c(N)cc(C)[n+]3C)nc(N)n1C
- GI50 (BT-549): > 100 µM (inactive)

Compound: CC(=O)C1C(=O)C(=O)N(c2ccc([N+](=O)[O-])cc2[N+](=O)[O-])C1=O (stereo not given)
- GI50 (BT-549): > 100 µM (inactive)

Compound: CN(C)CCNCc1ccc2c(-c3ccccc3)nc3cc(Cl)c(Cl)cc3n12
- GI50 (BT-549): 16.4 µM (inactive)

Compound: O=C(c1ccco1)N(C(=S)N1CCN(c2ccccc2)CC1)C1CCCCC1
- GI50 (DLD-1): 85.1 µM (inactive)
- GI50 (M19-MEL): > 100 µM (inactive)
- GI50 (HOP-18): > 100 µM (inactive)
- GI50 (DMS-114): 38.7 µM (inactive)
- GI50 (LXFL 529): 95.5 µM (inactive)
- GI50 (SNB-78): > 100 µM (inactive)

Compound: CN(Cc1c[n+]([O-])c2nc(N)nc(N)c2n1)c1ccc(C(=O)NC23CC4CC(CC(C4)C2)C3)cc1
- GI50 (BT-549): 28.2 µM (inactive)

Compound: O=[N+]([O-])c1cccnc1-n1cnc2ccccc21
- GI50 (BT-549): > 100 µM (inactive)

Compound: O=C1C=CC(=O)N1c1ccc(I)cc1
- GI50 (BT-549): 19 µM (inactive)

Compound: CC(=O)OC(CC1(C)C(C)CCC23COC(=O)C2=CCCC31)c1ccoc1 (stereo not given)
- GI50 (DLD-1): 26 µM (inactive)
- GI50 (M19-MEL): 33.8 µM (inactive)
- GI50 (DMS-114): 29.9 µM (inactive)
- GI50 (LXFL 529): 18.4 µM (inactive)
- GI50 (SNB-78): 25.4 µM (inactive)
- GI50 (XF498): 20.8 µM (inactive)

Compound: Cc1ccc(-n2nnc(C(N)=O)c2O)cc1
- GI50 (BT-549): > 100 µM (inactive)

Compound: CCCCNC(=S)Nc1nc(C(=O)NNC(=S)NCC)cs1
- GI50 (BT-549): > 100 µM (inactive)

Compound: CCN(CC)CC1CCCCN1CC(=O)N1CC(C)C(=O)Nc2ccccc21 (stereo not given)
- GI50 (DLD-1): > 100 µM (inactive)
- GI50 (M19-MEL): > 100 µM (inactive)
- GI50 (HOP-18): > 100 µM (inactive)
- GI50 (DMS-114): > 100 µM (inactive)
- GI50 (LXFL 529): > 100 µM (inactive)

Compound: C[C@]1(O)CC(=O)c2c(c(-c3ccc4cc5c(c(O)c4c3O)C(=O)C[C@@](C)(O)C5)c3cccc(O)c3c2O)C1
- GI50 (BT-549): 5.89 µM (inactive)

Compound: Cc1ccc(S(=O)(=O)N2CC2CCCCC=O)cc1 (stereo not given)
- GI50 (BT-549): > 100 µM (inactive)

Compound: CC(NC(=O)C(NC(=O)CNC(=O)OC(C)(C)C)C(C)C)C(=O)Oc1c(Cl)c(Cl)c(Cl)c(Cl)c1Cl (stereo not given)
- GI50 (BT-549): 23.8 µM (inactive)

Compound: NCCCCCCn1c(-c2ccc(Br)cc2)cs/c1=N\c1ccccc1
- GI50 (BT-549): 13.8 µM (inactive)

Compound: Cc1cc(N(CCC#N)CCC#N)ccc1/C=C(\NC(=O)/C=C/c1ccccc1)C(=O)NN
- GI50 (DLD-1): > 100 µM (inactive)
- GI50 (M19-MEL): > 100 µM (inactive)
- GI50 (DMS-114): > 100 µM (inactive)
- GI50 (LXFL 529): > 100 µM (inactive)
- GI50 (SNB-78): > 100 µM (inactive)
- GI50 (BT-549): 25.6 µM (inactive)
- GI50 (XF498): 25.6 µM (inactive)

Compound: O=C(CSCC(=O)N/N=C\c1cccc(Br)c1)N/N=C\c1cccc(Br)c1
- GI50 (BT-549): 21.2 µM (inactive)

Compound: CCCCNc1nc2ccccc2c2c1ncn2CC(C)C
- GI50 (BT-549): > 100 µM (inactive)
